This note sets out measurements from US11464751B2, “Use of fluoroethylnormemantine for the prevention and treatment of anxiety” (REST THERAPEUTICS, priority 2017, dated 2022).

Assay type in all cases: in vivo, rat
Data set [1] relates to naive rats (Wistar). The data set is described as follows: Fear conditioning + extinction + stabilization (PTSD model). An excerpt:
Several animal models have been developed to mimic the traumatic events that induce intense and recurrent fear symptoms characteristic of PTSD. • Pavlovian fear conditioning of the animals: This animal model consists of Pavlovian-type fear conditioning (Zovkic, Neuropsychopharmacology Reviews (2013) 38, 77-93): mice (or rats) are trained to associate exposure to danger (electric shock, etc.) with the presence of a specific cue or environment (sound cue for example). The memory of this association (danger-cue) is later tested by measuring tetany behavior (through fear) when the animal is re-exposed to the conditioning cue in the absence of real danger.
Again, the occurrence of symptoms of PTSD are assessed after a certain period of time, without exposure to the hazard, to simulate the long-term onset of PTSD pathology. • Fear extinction: After a fear conditioning as described above it can be of interest to apply a protocol to extinguish this fear. Classically, this phase is placed 24 hours after the conditioning phase.
The extinction protocols model the relearning of the normal (non-fear-motivated) response to the cue (sound) and are very useful in modeling PTSD. • Fear stabilization: It can be useful, to assess the performance of a treatment, to add a stabilization phase after the extinction phase, spaced 24 h apart. Typically, this phase puts the animals back under the extinction phase conditions. It then allows the detection of staggered performances of the treatments, but also of the resurgence of tetany (rebound effect).
(§1) In the following examples, the effects of memantine, propranolol and fluoroethylnormemantine (FENM, the subject of the present invention) are studied in naive rats (Wistar) subjected to various tests related to depression or anxiety and then compared.
(§2) The test substances are administered to rats intraperitoneally in a volume of 5 ml/kg, 30 minutes before the behavioral tests are performed.
(§3) The injected solutions contain either of the molecules in the form of one of their salts, a hydrochloride (memantine·HCl and FENM·HCl) for the nitrogen derivatives and as such for propranolol, at the concentrations indicated below in a mixture of 95% (NaCl 0.9% ww in water)/5% ethanol. In each experiment, the dose per kilogram is referenced.
The applicant used a fear conditioning test in which the clue (neutral conditional stimulus) is a sound, coupled with a danger (aversive unconditional stimulus) which is an electric shock delivered by the floor of the box. This conditioning is followed by a fear extinction phase with injection of the treatment solutions to be tested and then by a test phase itself. • Fear Conditioning Phase (FC): fear conditioning takes place in a standard conditioning box (context A, white box in Table 7) and the rats (8 per group) are subjected to 3 “sound-electroshock” pairs at times of 180 s, 381 s and 582 s after being placed in the box. Each sound lasts 20 s and each electroshock lasts 1 s with a current of 1 mA. • The fear extinction phase (Ext.) is conducted as follows: the rats are placed in a box similar to the one that will be used for the final test (context B, pink box in Table 7), for a 25-minute session. During this session, 24 presentations are made with the same sound as that used during the conditioning session (20 s each, 35 s apart). Of course, no electric shock is delivered, and the percentage of time of tetany (“freezing”) during the phase is recorded. • Stabilization phase: the day after the extinction phase, 30 minutes before the test phase, […] of 3 sounds (same sequence as used for conditioning), recording the percentage of time they remain still during this test phase. […]

Data set [2] deals with naive rats (Wistar). The data set is described as follows: Forced swimming test. Particulars: for Rat behavior over the period of time 1 to 6 minutes: frenetic movement / Rat behavior over the period of time 1 to 6 minutes: immobility (ies): second day, 30 min before; for Rat behavior over the period of time 1 to 6 minutes: immobility (ies): in s; for immobility time compared with control: all dose levels, particularly 10 mg/kg, p<0.001. The procedure: • the forced swimming test: This test has been used for a number of years with rats or mice to test the activity of antidepressants (F. Borsini, Psychopharmacology (1988) 94:147-160) and consists of placing the animal in a bowl filled with room-temperature water. After 15 minutes (pre-test session), the animal is taken out of the water and dried. Twenty-four hours later, the animal is again exposed to the previous conditions and the time of total immobility for a period of 5 minutes is recorded (test session). The animal is considered immobile when it performs only the movements necessary to keep its head out of the water. This immobility is easier to assess in rats than in mice, which have less explicit movements.
as §1, §2, §3
In the forced swimming test, rats (12 per group) are forced to swim in a tank filled with 23° C. water (10 minutes on the first day to allow for habituation to the medium and 6 minutes on the second day).
The behavior of the rats (stopping swimming, decreasing activity) is quantified by a video monitoring system.
The therapeutic solutions to be tested are administered on the second day 30 minutes before the experiment.

In data set [3] the test system is naive rats (Wistar). The data set is described as follows: Pre-pulse inhibition (PPI) test, sensory filtering. Conditions: for Percentage of pre-pulse inhibition, Average: average over first pulse intensities; for effect on PPI (schizophrenia-inducing effect): memantine 10 mg/kg (p<0.01), FENM even at high dose (20 mg/kg).
From the text: • Pre-pulse inhibition (PPI) test: One of the major problems of treatments targeting the central nervous system remains the achievement of the desired effect without the appearance of crippling psychological side effects, even exceeding the therapeutic benefit of the treatment. These effects are often significant (the rebound effect of benzodiazepines) or even paradoxical (the anxiety-producing effect of short-term serotonin reuptake inhibitors). In particular, they can induce a destabilization of sensory filtering and generate symptoms similar to schizophrenia.
Pre-impulse inhibition testing is based on the brain's ability to adapt to a moderate-intensity stimulus in order to limit the effect of the same high-intensity stimulus. In this test, the animals are placed in a soundproof cage and subjected either to a sound pulse of 120 decibels (dB) or to a sequence of 2 pulses spaced about 100 milliseconds apart, the second pulse being of fixed intensity of 120 dB and the first of variable intensity between 70 and 85 dB).
In animals with psychotic disorders of a schizophrenic nature, this inhibition is more or less eliminated.
as §1, §2, §3
Pre-impulse inhibition testing is based on the brain's ability to adapt to a moderate-intensity stimulus in order to limit the effect of the same high-intensity stimulus. In this test, the animals (12 per group) are placed in a soundproof cage and subjected either to a sound pulse of 120 decibels (dB) or to a sequence of 2 pulses spaced about 100 milliseconds apart, the second pulse being of a fixed intensity of 120 dB and the first of variable intensity between 70 and 85 dB).

The mark [4] stands for this setting: 10 mg/kg i.p., first pulse 72 dB.
Setting [5] is: 10 mg/kg i.p., first pulse 76 dB.
[6] abbreviates: 10 mg/kg i.p., first pulse 80 dB.
[7] abbreviates: 10 mg/kg i.p., first pulse 84 dB.

As for `NC12CC3CC(C1)CC(CCF)(C3)C2`, the “Percentage of time of tetany (freezing) during the stabilization phase” value in the data set with naive rats (Wistar) [1] (5 mg/kg, Early treatment: one injection 30 minutes before the extinction phase) was 21%; with naive rats (Wistar) [1] (5 mg/kg, Late treatment: one injection 30 minutes before the stabilization phase), 26%; with naive rats (Wistar) [1] (5 mg/kg, Protective effect: one injection 30 minutes before the conditioning phase), 23%; in the data set with naive rats (Wistar) [1] (10 mg/kg, Early treatment: one injection 30 minutes before the extinction phase) it was 25%; with naive rats (Wistar) [1] (10 mg/kg, Late treatment: one injection 30 minutes before the stabilization phase) it was 4%; in the data set on naive rats (Wistar) [1] (10 mg/kg, Protective effect: one injection 30 minutes before the conditioning phase), 6%. Moreover, the “Percentage of time of tetany (freezing) during the stabilization phase” value in the data set with naive rats (Wistar) [1] (20 mg/kg, Early treatment: one injection 30 minutes before the extinction phase) is listed as 6%; with naive rats (Wistar) [1] (20 mg/kg, Late treatment: one injection 30 minutes before the stabilization phase) it was 2%; in the data set with naive rats (Wistar) [1] (20 mg/kg, Protective effect: one injection 30 minutes before the conditioning phase) it was 2%. Also, in the data set with naive rats (Wistar) [1] (administered at conditioning, early or late post-traumatic treatment), the “tetany in the stabilization phase compared with control” value is reported as “virtually eliminate”. Besides, the “Rat behavior over the period of time 1 to 6 minutes: frenetic movement” value worked out at 43.2 s with naive rats (Wistar) [2] (1 mg/kg i.p.), 47.6 s in the data set on naive rats (Wistar) [2] (3 mg/kg i.p.) and 60.6 s with naive rats (Wistar) [2] (10 mg/kg i.p.). Also, the “Rat behavior over the period of time 1 to 6 minutes: immobility (ies)” value is listed as 157.8 in the data set with naive rats (Wistar) [2] (1 mg/kg i.p.), 164.3 in the data set on naive rats (Wistar) [2] (3 mg/kg i.p.) and 140.5 in the data set on naive rats (Wistar) [2] (10 mg/kg i.p.). In the data set on naive rats (Wistar) [2], the “immobility time compared with control” value is “very significant (p<0.001) decrease”. Also, the “Percentage of pre-pulse inhibition, Average” value in the data set with naive rats (Wistar) [3] (5 mg/kg i.p.) came to 42%; with naive rats (Wistar) [3] (10 mg/kg i.p.), 45%; in the data set with naive rats (Wistar) [3] (20 mg/kg i.p.) it was 48%. The “Percentage of pre-pulse inhibition as a function of the intensity of the first pulse” value in the data set with naive rats (Wistar) [3] (5 mg/kg i.p., first pulse 72 dB) amounted to 24%; in the data set on naive rats (Wistar) [3] (5 mg/kg i.p., first pulse 76 dB), 37%; with naive rats (Wistar) [3] (5 mg/kg i.p., first pulse 80 dB) it was 47%; with naive rats (Wistar) [3] (5 mg/kg i.p., first pulse 84 dB), 60%; in the data set with naive rats (Wistar) [3] (setting [4]), 27%; in the data set on naive rats (Wistar) [3] (setting [5]) it was 39%. Besides, the “Percentage of pre-pulse inhibition as a function of the intensity of the first pulse” value was 51% in the data set with naive rats (Wistar) [3] (setting [6]); 64% with naive rats (Wistar) [3] (setting [7]); 31% in the data set on naive rats (Wistar) [3] (20 mg/kg i.p., first pulse 72 dB); 46% with naive rats (Wistar) [3] (20 mg/kg i.p., first pulse 76 dB); 54% with naive rats (Wistar) [3] (20 mg/kg i.p., first pulse 80 dB); 62% in the data set on naive rats (Wistar) [3] (20 mg/kg i.p., first pulse 84 dB). Besides, the “effect on PPI (schizophrenia-inducing effect)” value with naive rats (Wistar) [3] is on record as “induces no effect”.

With `CC12CC3CC(C)(C1)CC(N)(C3)C2` [Memantine, memantine], the “rebound effect (increased tetany) compared with control during the stabilization phase” value with naive rats (Wistar) [1] (10 mg/kg administered during the extinction phase) is recorded as “+25%”. Moreover, the “Rat behavior over the period of time 1 to 6 minutes: frenetic movement” value worked out at 55.1 s with naive rats (Wistar) [2] (1 mg/kg i.p.), 48.7 s in the data set on naive rats (Wistar) [2] (3 mg/kg i.p.) and 67.2 s with naive rats (Wistar) [2] (10 mg/kg i.p.). In addition, the “Rat behavior over the period of time 1 to 6 minutes: immobility (ies)” value in the data set on naive rats (Wistar) [2] (1 mg/kg i.p.) is 139.8; with naive rats (Wistar) [2] (3 mg/kg i.p.), 145.7; with naive rats (Wistar) [2] (10 mg/kg i.p.), 119.7. For the same molecule, in the data set with naive rats (Wistar) [2], the “immobility time compared with control” value is “very significant (p<0.001) decrease”. Besides, in the data set with naive rats (Wistar) [3] (10 mg/kg i.p.), the “Percentage of pre-pulse inhibition, Average” value was 31%. Moreover, the “Percentage of pre-pulse inhibition as a function of the intensity of the first pulse” value is 19% in the data set on naive rats (Wistar) [3] (setting [4]), 24% in the data set with naive rats (Wistar) [3] (setting [5]), 36% in the data set with naive rats (Wistar) [3] (setting [6]) and 44% with naive rats (Wistar) [3] (setting [7]). Further, in the data set on naive rats (Wistar) [3], the “effect on PPI (schizophrenia-inducing effect)” value is “induces an inhibition of the PPI effect”.
